According to patent publication US9994556B2, “Triazole modified coumarin and biphenyl amide-based HSP90 inhibitors” (THE UNIVERSITY OF KANSAS, priority 2014, dated 2018):
Read-outs that look alike come from different tables or passages of the source.

What was measured:
Format in all cases: cell-based
SKBr3 cells = experiment: MTS/PMS cell viability assay, SKBr3; conditions: Homo sapiens, SK-BR-3
Description: (§1) a) MTS/PMS Cell Viability Assay (SKBr3 and MCF-7 Cells)
(§2) Cells were maintained in a 1:1 mixture of Advanced DMEM/F12 (Gibco) supplemented with non-essential amino acids, L-glutamine (2 mM), streptomycin (500 μg/mL), penicillin (100 units/mL), and 10% FBS. Cells were grown to confluence in a humidified atmosphere (37° C., 5% CO2), seeded (2000/well, 100 μL) in 96-well plates, and allowed to attach overnight. Compound at varying concentrations in DMSO (1% DMSO final concentration) was added, and cells were returned to the incubator for 72 hr. At 72 hr, the number of viable cells was determined using an MTS/PMS cell proliferation kit (Promega) per the manufacturer's instructions. Cells incubated in 1% DMSO were used at 100% proliferation, and values were adjusted accordingly. IC50 values were calculated from separate experiments performed in triplicate using GraphPad Prism.

MCF-7 cells = experiment: MTS/PMS cell viability assay, MCF-7; conditions: Homo sapiens, MCF7, 72 hr, mean ± standard deviation, read-out: IC50 MCF-7
Description: as §1, §2

MDA-MB-468LN cell line = experiment: Promega CellTiter-Glo (CTG) luminescent assay, MDA-MB-468LN; conditions: Homo sapiens, 72 hr, mean ± standard deviation
Description: (§3) b) Promega CellTiter-Glo (CTG) Luminescent Assay
(§4) Antiproliferative activities against MDA-MB-468LN, MDA1986 and JMAR cell lines were performed with 384-well white plates with the Promega CellTiter-Glo (CTG) luminescent assay with 72 hr compound treatment. Data analysis was performed using GraphPad Prism. Selected data were further checked with MTS/PMS cell viability assay with 96-well plates, which correlated well with Promega CellTiter-Glo luminescent assay.

MDA1986 cell line = experiment: Promega CellTiter-Glo (CTG) luminescent assay, MDA1986
Description: as §3, §4

JMAR cell line = experiment: Promega CellTiter-Glo (CTG) luminescent assay, JMAR; conditions: 72 hr, mean ± standard deviation
Description: as §3, §4

PC3-MM2 cells = experiment: Sulforhodamine B assay, PC3-MM2; conditions: Homo sapiens, PC3MM2, mean ± standard deviation
Description: (§5) c) Sulforhodamine B Assay
(§6) The sulforhodamine B assay is used to measure drug-induced cytotoxicity and cell proliferation for large-scale drug-screening applications. Its principle is based on the ability of the protein dye sulforhodamine B to bind electrostatically on pH dependent protein basic amino acid residues of trichloroacetic acid-fixed cells. The aim is to evaluate samples showing selective growth inhibition or cell killing of particular tumor cell lines.
(§7) The SRB assay is performed by treating cells using a 10 point dose-response curve. The cells are fixed with trichloroacetic acid solution and stained with sulforhodamine B dye. The stained cells are then solubilized with 10 mM Tris buffer and read for absorbance at 565 nm.
(§8) Percentage growth is calculated at each of the drug concentration levels using the absorbance raw data.
(§9) Percentage growth inhibition is calculated as: [(Ti−Tz)/(C−Tz)]×100 for concentrations for which Ti≥Tz. [(Ti−Tz)/(Tz)]×100 for concentrations for which Ti<Tz.
(§10) Ti=Absorbance of wells at a given drug concentration level.
(§11) Tz=Absorbance time zero wells
(§12) C=Absorbance of untreated wells (media and cells only)
(§13) After growth inhibition values have been calculated, the data is plotted on Graphpad Prism software. Data is entered and plotted on a sigmoidal dose-response curve using non-linear regression.

LNCaP cells = experiment: Sulforhodamine B assay, LNCaP; conditions: Homo sapiens, mean ± standard deviation
Description: as §5, §6, §7, §8, §9, §10, §11, §12, §13

[1] = Table 1 coumarin-based triazoles, 72 hr, mean ± standard deviation, at least two experiments in triplicate, read-out: IC50 SKBr3
[2] = Table 1 coumarin-based triazoles
[3] = Table 1 coumarin-based triazoles, 72 hr, mean ± standard deviation, read-out: IC50 MDA1986
[4] = Table 2 biphenyl triazole analogues, 72 hr, mean ± standard deviation, read-out: IC50 SKBr3
[5] = Table 2 biphenyl triazole analogues
[6] = Table 2 biphenyl triazole analogues, 72 hr, mean ± standard deviation, read-out: IC50 MDA1986

| Compound | IC50 (SKBr3 cells; [1]) | IC50 (MCF-7 cells; [2]) | IC50 (MDA-MB-468LN cell line; [2]) | IC50 (MDA1986 cell line; [3]) | IC50 (JMAR cell line; [2]) | IC50 (PC3-MM2 cells; [2]) | IC50 (LNCaP cells; [2]) | IC50 (SKBr3 cells; read-out: IC50 against SKBr3 cell line) | IC50 (MDA1986 cell line; read-out: IC50 against MDA1986 cell line) | IC50 (SKBr3 cells; [4]) | IC50 (MCF-7 cells; [5]) | IC50 (MDA-MB-468LN cell line; [5]) | IC50 (MDA1986 cell line; [6]) | IC50 (JMAR cell line; [5]) | IC50 (PC3-MM2 cells; [5]) | IC50 (LNCaP cells; [5]) |
| --- | --- | --- | --- | --- | --- | --- | --- | --- | --- | --- | --- | --- | --- | --- | --- | --- |
| Cc1c(OC2CCN(C)CC2)ccc2cc(NC(=O)c3cn(Cc4ccc([N+](=O)[O-])cc4)nn3)c(=O)oc12 [4l, 1-(4-Nitrobenzyl)-N-(8-methyl-7-((1-methylpiperidin-4-yl)oxy)-2-oxo-2H-chromen-3-yl)-1H-1,2,3-triazole-4-carboxamide] | 380 nM | 640 nM | 810 ± 230 nM | 180 ± 220 nM | 260 ± 340 nM | 2490 ± 320 nM | 1280 ± 710 nM |  |  |  |  |  |  |  |  |  |
| Cc1c(OC2CCN(C)CC2)ccc2cc(NC(=O)c3cn(Cc4ccc(F)cc4)nn3)c(=O)oc12 [4m, 1-(4-Fluorobenzyl)-N-(8-methyl-7-((1-methylpiperidin-4-yl)oxy)-2-oxo-2H-chromen-3-yl)-1H-1,2,3-triazole-4-carboxamide] | 1080 ± 10 nM | 1340 ± 190 nM | 2600 ± 6120 nM | 1770 ± 4100 nM | 2380 ± 5380 nM | 8820 ± 1140 nM | 3310 nM |  |  |  |  |  |  |  |  |  |
| Cc1c(OC2CCN(C)CC2)ccc2cc(NC(=O)c3cn(Cc4cccc(Cl)c4)nn3)c(=O)oc12 [4n, 1-(3-Chlorobenzyl)-N-(8-methyl-7-((1-methylpiperidin-4-yl)oxy)-2-oxo-2H-chromen-3-yl)-1H-1,2,3-triazole-4-carboxamide] | 1060 ± 10 nM | 1680 ± 10 nM | 1140 ± 1170 nM | 230 ± 220 nM | 190 ± 100 nM | 6000 ± 1130 nM | 3030 ± 50 nM |  |  |  |  |  |  |  |  |  |
| Cc1c(OC2CCN(C)CC2)ccc2cc(NC(=O)c3cn(Cc4ccccc4Cl)nn3)c(=O)oc12 [4p, 1-(2-Chlorobenzyl)-N-(8-methyl-7-((1-methylpiperidin-4-yl)oxy)-2-oxo-2H-chromen-3-yl)-1H-1,2,3-triazole-4-carboxamide] | 1300 ± 70 nM | 990 ± 80 nM | 2100 ± 520 nM | 3200 ± 1370 nM | 3700 ± 850 nM | 6660 ± 5440 nM | > 100000 nM |  |  |  |  |  |  |  |  |  |
| Cc1c(OC2CCN(C)CC2)ccc2cc(NC(=O)c3cn(CCc4ccccc4)nn3)c(=O)oc12 [4r, N-(8-methyl-7-((1-methylpiperidin-4-yl)oxy)-2-oxo-2H-chromen-3-yl)-1-phenethyl-1H-1,2,3-triazole-4-carboxamide] | 130 ± 10 nM | 550 ± 10 nM | 990 ± 100 nM | 110 ± 300 nM | 740 ± 860 nM | 1400 ± 40 nM | 2360 ± 530 nM | 130 nM | ~110 nM |  |  |  |  |  |  |  |
| CN1CCC(Oc2ccc(-c3ccc(NC(=O)c4cn(-c5ccccc5)nn4)cc3)cc2)CC1 [5a, N-(4′-((1-methylpiperidin-4-yl)oxy)-[1,1′-biphenyl]-4-yl)-1-phenyl-1H-1,2,3-triazole-4-carboxamide] |  |  |  |  |  |  |  |  |  | 1140 ± 100 nM | 1440 ± 180 nM | 830 ± 160 nM | 1300 ± 90 nM | 2200 ± 240 nM | 4260 ± 5590 nM | 3890 ± 1090 nM |
| CN1CCC(Oc2ccc(-c3ccc(NC(=O)c4cn(CCc5ccccc5)nn4)cc3)cc2)CC1 [5c, N-(4′-((1-methylpiperidin-4-yl)oxy)-[1,1′-biphenyl]-4-yl)-1l-phenethyl-1H-1,2,3-triazole-4-carboxamide] |  |  |  |  |  |  |  |  |  | 190 ± 20 nM | 380 ± 100 nM | 360 ± 40 nM | 100 ± 230 nM | 580 ± 460 nM | 830 ± 340 nM | 430 ± 220 nM |
| CN1CCC(Oc2ccc(-c3ccc(NC(=O)c4cn(Cc5ccc(Cl)cc5)nn4)cc3)cc2)CC1 [5d, 1-(4-Chlorobenzyl)-N-(4′-((1-methylpiperidin-4-yl)oxy)-[1, 1′-biphenyl]-4-yl)-1H-1,2,3-triazole-4-carboxamide] |  |  |  |  |  |  |  |  |  | 320 ± 100 nM | 440 ± 40 nM | 740 ± 190 nM | 1300 ± 370 nM | 2300 ± 820 nM | 660 ± 210 nM | 1590 ± 780 nM |
| CN1CCC(Oc2ccc(-c3ccc(NC(=O)c4cn(Cc5ccc(Br)cc5)nn4)cc3)cc2)CC1 [5e, 1-(4-Bromobenzyl)-N-(4′-((1-methylpiperidin-4-yl)oxy)-[1,1′-biphenyl]-4-yl)-1H-1,2,3-triazole-4-carboxamide] |  |  |  |  |  |  |  |  |  | 490 ± 30 nM | 560 ± 40 nM | 2800 ± 610 nM | 3100 ± 870 nM | 7800 nM | 19900 ± 27900 nM | 540 ± 120 nM |
